Patent US11081236B2, “Diagnostic and therapeutic methods for the treatment of breast cancer” (GENENTECH, INC., priority 2018, dated 2021)

Columns and labels:
Format in all cases: cell-based
[1] = tested on: MDA-MB-330; assay: RNA sequencing after E2 or DMSO treatment, MDA-MB-330
Experimental: (§1) To derive a transcriptional signature of ER pathway activity, RNA sequencing was performed on seven breast cancer cell lines following treatment with either DMSO or 1 μM estradiol (E2) for 24 hours. Briefly, RNA libraries for cell lines were made with TRUSEQ® RNA sample preparation kit (ILLUMINA®) according to the manufacturer's protocol. The libraries were sequenced on an ILLUMINA® Hi Seq 2000, using 1-4 lanes per cell line. RNA sequencing (RNA-seq) data were analyzed with HTSeqGenie (R package version 3.14.0) in BioConductor (Huber et al. Nature Methods. 112:115-21, 2015) as follows: reads were trimmed to 75 base pairs (bp), filtered for quality and rRNA/adapter contamination, and aligned to the reference genome GRCh38 using GSNAP (Wu et al. Bioinforma Oxf Engl. 26:873-81, 2010). Gene expression was quantified as Reads per Kilobase of exon model per Million mapped reads normalized by size factor (nRPKM), defined as number of reads aligning to a gene in a sample/(total number of uniquely mapped reads for that sample x gene length x size factor). Genes without gene symbol and genes of uncertain function (LOC and Corf symbols) were excluded.

[2] = tested on: BT474; assay: RNA sequencing after E2 or DMSO treatment, BT474
Experimental: as §1

[3] = tested on: MCF7; assay: RNA sequencing after E2 or DMSO treatment, MCF7
Experimental: as §1

[4] = tested on: HCC1500; assay: RNA sequencing after E2 or DMSO treatment, HCC1500
Experimental: as §1

[5] = gene BAMBI, 1 μM E2 24 hours vs DMSO
[6] = gene BCAS1, 1 μM E2 24 hours vs DMSO
[7] = gene CCNG2, 1 μM E2 24 hours vs DMSO
[8] = gene DDEE4, 1 μM E2 24 hours vs DMSO
[9] = gene EGLN3, 1 μM E2 24 hours vs DMSO
[10] = gene FAM1718, 1 μM E2 24 hours vs DMSO
[11] = gene GRM4, 1 μM E2 24 hours vs DMSO
[12] = gene IL1R1, 1 μM E2 24 hours vs DMSO
[13] = gene LIPH, 1 μM E2 24 hours vs DMSO
[14] = gene NBEA, 1 μM E2 24 hours vs DMSO
[15] = gene PNPLA7, 1 μM E2 24 hours vs DMSO
[16] = gene PSCA, 1 μM E2 24 hours vs DMSO
[17] = gene SEMASE, 1 μM E2 24 hours vs DMSO
[18] = gene SSPO, 1 μM E2 24 hours vs DMSO
[19] = gene STON1, 1 μM E2 24 hours vs DMSO
[20] = gene TGFB3, 1 μM E2 24 hours vs DMSO
[21] = gene TP53INP1, 1 μM E2 24 hours vs DMSO
[22] = gene TP53INP2, 1 μM E2 24 hours vs DMSO

C[C@]12CC[C@@H]3c4ccc(O)cc4CC[C@H]3[C@@H]1CC[C@@H]2O [Compound E2, estradiol]
Log2 FC E2 vs no E2: BAMBI [1, 5]: −1.352
Log2 FC E2 vs no E2: BCAS1 [1, 6]: −1.772
Log2 FC E2 vs no E2: CCNG2 [1, 7]: −1.009
Log2 FC E2 vs no E2: DDEE4 [1, 8]: −1.321
Log2 FC E2 vs no E2: EGLN3 [1, 9]: −2.785
Log2 FC E2 vs no E2: FAM1718 [1, 10]: −2.790
Log2 FC E2 vs no E2: GRM4 [1, 11]: −2.281
Log2 FC E2 vs no E2: IL1R1 [1, 12]: −0.941
Log2 FC E2 vs no E2: LIPH [1, 13]: −1.737
Log2 FC E2 vs no E2: NBEA [1, 14]: −1.044
Log2 FC E2 vs no E2: PNPLA7 [1, 15]: −1.084
Log2 FC E2 vs no E2: PSCA [1, 16]: −2.529
Log2 FC E2 vs no E2: SEMASE [1, 17]: −2.427
Log2 FC E2 vs no E2: SSPO [1, 18]: −1.383
Log2 FC E2 vs no E2: STON1 [1, 19]: −1.081
Log2 FC E2 vs no E2: TGFB3 [1, 20]: −1.111
Log2 FC E2 vs no E2: TP53INP1 [1, 21]: −1.304
Log2 FC E2 vs no E2: TP53INP2 [1, 22]: −1.210
Log2 FC E2 vs no E2: BAMBI [2, 5]: −1.153
Log2 FC E2 vs no E2: BCAS1 [2, 6]: −1.110
Log2 FC E2 vs no E2: CCNG2 [2, 7]: −0.935
Log2 FC E2 vs no E2: DDEE4 [2, 8]: −0.862
Log2 FC E2 vs no E2: EGLN3 [2, 9]: −0.118
Log2 FC E2 vs no E2: FAM1718 [2, 10]: −1.279
Log2 FC E2 vs no E2: GRM4 [2, 11]: −1.883
Log2 FC E2 vs no E2: IL1R1 [2, 12]: −1.490
Log2 FC E2 vs no E2: LIPH [2, 13]: −0.804
Log2 FC E2 vs no E2: NBEA [2, 14]: −0.346
Log2 FC E2 vs no E2: PNPLA7 [2, 15]: −1.427
Log2 FC E2 vs no E2: PSCA [2, 16]: −1.956
Log2 FC E2 vs no E2: SEMASE [2, 17]: −1.101
Log2 FC E2 vs no E2: SSPO [2, 18]: −1.739
Log2 FC E2 vs no E2: STON1 [2, 19]: −0.650
Log2 FC E2 vs no E2: TGFB3 [2, 20]: −0.304
Log2 FC E2 vs no E2: TP53INP1 [2, 21]: −1.496
Log2 FC E2 vs no E2: TP53INP2 [2, 22]: −2.069
Log2 FC E2 vs no E2: BAMBI [3, 5]: −0.571
Log2 FC E2 vs no E2: BCAS1 [3, 6]: −0.981
Log2 FC E2 vs no E2: CCNG2 [3, 7]: −1.267
Log2 FC E2 vs no E2: DDEE4 [3, 8]: −1.080
Log2 FC E2 vs no E2: EGLN3 [3, 9]: −1.090
Log2 FC E2 vs no E2: FAM1718 [3, 10]: −1.287
Log2 FC E2 vs no E2: GRM4 [3, 11]: −1.106
Log2 FC E2 vs no E2: IL1R1 [3, 12]: −2.160
Log2 FC E2 vs no E2: LIPH [3, 13]: −1.170
Log2 FC E2 vs no E2: NBEA [3, 14]: −1.132
Log2 FC E2 vs no E2: PNPLA7 [3, 15]: −1.046
Log2 FC E2 vs no E2: PSCA [3, 16]: −2.199
Log2 FC E2 vs no E2: SEMASE [3, 17]: −1.034
Log2 FC E2 vs no E2: SSPO [3, 18]: −1.338
Log2 FC E2 vs no E2: STON1 [3, 19]: −2.067
Log2 FC E2 vs no E2: TGFB3 [3, 20]: −1.707
Log2 FC E2 vs no E2: TP53INP1 [3, 21]: −1.816
Log2 FC E2 vs no E2: TP53INP2 [3, 22]: −1.207
Log2 FC E2 vs no E2: BAMBI [4, 5]: −1.438
Log2 FC E2 vs no E2: BCAS1 [4, 6]: −2.105
Log2 FC E2 vs no E2: CCNG2 [4, 7]: −1.525
Log2 FC E2 vs no E2: DDEE4 [4, 8]: −1.865
Log2 FC E2 vs no E2: EGLN3 [4, 9]: −2.504
Log2 FC E2 vs no E2: FAM1718 [4, 10]: −0.683
Log2 FC E2 vs no E2: GRM4 [4, 11]: −1.071
Log2 FC E2 vs no E2: IL1R1 [4, 12]: −1.943
Log2 FC E2 vs no E2: LIPH [4, 13]: −1.384
